Assay results from patent publication US12398119B2, “Piperazine azaspiro derivatives” (PFIZER INC., priority 2018, dated 2025).
pEC50: −log10 of the molar value. Where two headings read alike, the source gives them in different places.

Target: T1, Human M4 mAChR (Homo sapiens, UniProt P08173)
T1 construct: host or cells: HEK293 (Sor-L9 HEK293 human/M4/GloSensor Cell Clone Number 40)
T1 sequence (P08173 1-479): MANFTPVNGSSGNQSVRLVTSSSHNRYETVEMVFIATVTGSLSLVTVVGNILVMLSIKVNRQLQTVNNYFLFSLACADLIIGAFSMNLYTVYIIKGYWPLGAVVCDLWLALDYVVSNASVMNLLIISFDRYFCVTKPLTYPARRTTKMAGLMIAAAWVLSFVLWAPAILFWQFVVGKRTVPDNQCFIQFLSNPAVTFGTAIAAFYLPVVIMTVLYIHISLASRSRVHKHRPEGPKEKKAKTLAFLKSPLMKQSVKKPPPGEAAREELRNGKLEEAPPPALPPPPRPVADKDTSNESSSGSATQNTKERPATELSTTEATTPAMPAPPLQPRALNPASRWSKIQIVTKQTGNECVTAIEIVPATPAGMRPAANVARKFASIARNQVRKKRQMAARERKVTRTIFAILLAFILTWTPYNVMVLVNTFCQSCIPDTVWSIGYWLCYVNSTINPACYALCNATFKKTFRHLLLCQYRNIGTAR
Assay: Muscarinic hM4 Agonist GloSensor cAMP Assay
Type: cell-based
Procedure: Muscarinic hM4 Agonist GloSensor cAMP Assay Methods
Compounds were prepared in advance of the assay. Test compounds were solubilized in 100% dimethyl sulfoxide (DMSO, Sigma D8418) to a concentration of 30 mM. A 10-point intermediate dilution series using half log dilutions was created in 100% DMSO with a top concentration of 4 mM. The serially diluted compounds were spotted as 200 nL/well in a 384-well plate (Matrix Catalog Number 4325). The final compound concentration range in the assay was […] to 0.3 nM with a final DMSO concentration of 0.25%.
Human M4 mAChR expressing stable cell lines were generated using a parental HEK cell expressing the GloSensor construct (Promega Sor-L9 HEK293 human/M4/GloSensor Cell Clone Number 40). The cells were grown in 90% Dulbecco's Modified Eagle Medium (DMEM, Gibco 11960), 10% fetal bovine serum (FBS, Hyclone CH.30160-03), 1% Penicillin/Streptomycin (Gibco 15070-063), 500 µg/mL Geneticin (Gibco 10131-027), 200 µg/mL Hygromycin B (Invitrogen 10687-010) and 1% Glutamax (Thermo Fisher 35050061).
One day prior to assay, the cells were lifted using dissociation buffer (Gibco 13151-014) and spun in a centrifuge at 250 times gravity for 5 minutes at room temperature. Supernatant was removed and the cell pellet was resuspended in growth media to a concentration of […]. Cells were then added to white poly-d-lysine coated plates (Becton Dickinson 356661) as 40 μL per well (25,000 cells) and incubated overnight (20-24 hours) in a 37° C. humidified incubator with 5% carbon dioxide (C02).
The following day, culture media was removed from the cell plates and replaced with […] equilibration medium containing 88% CO2-independent medium (Invitrogen 18045088), 10% FBS and 2% GloSensor cAMP reagent (Promega E1291) that had been warmed to 37° C. Plates were then covered and incubated for 2 hours at room temperature while protected from light.
To the previously prepared serially diluted compound plates, 200 nL of 4 mM ACh (Sigma A2661, 10 μM final) or 200 nL of 100% DMSO (0.25% final) was added to the positive and negative control wells, respectively. Compound plates were then diluted by adding 16 μL of C02-independent media containing 10% FBS and an EC80 concentration of isoproterenol (Sigma 16504). Prior to compound testing, concentration response curves were run for isoproterenol to determine the EC80 concentration. At the end of the 2 hour equilibration, 10 µL was transferred from the compound plates to the cell plates. The cell plates were incubated an additional 7 minutes at room temperature and then read using a Multi-label EnVision plate reader (Perkin Elmer) for luminescence.
The raw data, expressed as relative light units, was analyzed using Activity Base (IDBS). The percent effect at each compound concentration was calculated based on and relative to the amount of cAMP produced by the positive and negative control wells contained on each assay plate. The positive control wells contained an EC100 concentration of ACh and the negative control wells contained only DMSO. The concentration and % effect values were fit using a four-parameter logistic dose response equation, and the concentration required for 50% effect (EC50) was determined as well as the maximum asymptote of the concentration response curve to define the efficacy.

[1] = Emax: maximum asymptote of concentration response curve, relative to ACh positive control (EC100) and DMSO, geometric mean, read-out: % maximum effect
[2] = HEK293 human/M4/GloSensor cells, EC80 isoproterenol, geometric mean, number of determinations in parentheses, read-out: EC50

Row | Emax [1] [%] | pEC50 [2] | pEC50 (enantiomers reported in footnotes to Table 1, number of determinations in parentheses, read-out: M4 EC50) | Emax (enantiomers reported in footnotes to Table 1, number of determinations in parentheses, read-out: M4 Emax) [%] | SMILES
1 | 92 | 9.25 | – | – | CCOC(=O)N1CC2(CCC(N3CCN(c4ncccc4-c4ccc(NC(C)=O)cc4)CC3)C2)C1 (stereo not shown) [Example 52, ethyl 6-(4-(3-(4-acetamidophenyl)pyridin-2-yl)piperazin-1-yl)-2-azaspiro[3.4]octane-2-carboxylate]
2 | 85 | 6.84 | – | – | CCOC(=O)N1CCC2(CC(N3CCN(c4ncccc4-c4ccc(C#N)cn4)CC3)C2)C1 (single isomer, unassigned) [Example 23, ethyl 2-[4-(5-cyano-2,3′-bipyridin-2′-yl)piperazin-1-yl]-6-azaspiro[3.4]octane-6-carboxylate]
3 | 59.6 | 7.93 | – | – | CCOC(=O)N1CC2(CCC(N3CCN(c4ncccc4-c4ccc5nccn5c4)CC3)C2)C1 (stereo not shown) [Example 39, ethyl 6-{4-[3-(imidazo[1,2-a]pyridin-6-yl)pyridin-2-yl]piperazin-1-yl}-2-azaspiro[3.4]octane-2-carboxylate]
4 | 92.9 | 7.91 | – | – | CCOC(=O)N1CC2(CC[C@@H](N3CCN(c4nccnc4N4CCOCC4)CC3)C2)C1 [Example 42, ethyl (6R)-6-{4-[3-(morpholin-4-yl)pyrazin-2-yl]piperazin-1-yl}-2-azaspiro[3.4]octane-2-carboxylate]
5 | 92.6 | 8.32 | – | – | CCOC(=O)N1CCC2(CC(N3CCN(c4ncccc4-c4cnn(C)c4)CC3)C2)C1 (stereo not shown) [Example 13, ethyl 2-{4-[3-(1-methyl-1H-pyrazol-4-yl)pyridin-2-yl]piperazin-1-yl}-6-azaspiro[3.4]octane-6-carboxylate]
6 | – | – | < 6.62 | 76.2 | CCOC(=O)N1CC2(CCC(N3CCN(c4ncccc4C)CC3)C2)C1 (single isomer, unassigned) [enantiomer of Example 21, ethyl 6-[4-(3-methylpyridin-2-yl)piperazin-1-yl]-2-azaspiro[3.4]octane-2-carboxylate]
7 | 80.6 | 8.11 | – | – | CCOC(=O)N1CC2(CCC(N3CCN(c4ncccc4-c4sc(C)nc4C)CC3)C2)C1 (stereo not shown) [Example 36, ethyl 6-{4-[3-(2,4-dimethyl-1,3-thiazol-5-yl)pyridin-2-yl]piperazin-1-yl}-2-azaspiro[3.4]octane-2-carboxylate]
8 | 84 | 8.35 | – | – | CCOC(=O)N1CC2(CCC(N3CCN(c4ncccc4N4CCC(F)(F)C4)CC3)C2)C1 (stereo not shown) [Example 29, ethyl 6-{4-[3-(3,3-difluoropyrrolidin-1-yl)pyridin-2-yl]piperazin-1-yl}-2-azaspiro[3.4]octane-2-carboxylate]
9 | 96.2 | 8.89 | – | – | CCOC(=O)N1CC2(CCC(N3CCN(c4ncccc4-c4cnsn4)CC3)C2)C1 (single isomer, unassigned) [Example 34, ethyl 6-{4-[3-(1,2,5-thiadiazol-3-yl)pyridin-2-yl]piperazin-1-yl}-2-azaspiro[3.4]octane-2-carboxylate]
10 | 104 | 7.61 | – | – | CCOC(=O)N1CCC2(CC(N3CCN(c4ncccc4-c4cscn4)CC3)C2)C1 (stereo not shown) [Example 16, ethyl 2-{4-[3-(1,3-thiazol-4-yl)pyridin-2-yl]piperazin-1-yl}-6-azaspiro[3.4]octane-6-carboxylate]
11 | 68.2 | 7.83 | – | – | CCOC(=O)N1CC2(CC[C@@H](N3CCN(c4ncccc4-n4cc(C)cn4)CC3)C2)C1 [Example 9, ethyl (6R)-6-{4-[3-(4-methyl-1H-pyrazol-1-yl)pyridin-2-yl]piperazin-1-yl}-2-azaspiro[3.4]octane-2-carboxylate]
12 | 92.3 | 8.88 | – | – | CCOC(=O)N1CC2(CCC(N3CCN(c4ncccc4-c4cnsn4)CC3)C2)C1 (stereo not shown) [Example 33, ethyl 6-{4-[3-(1,2,5-thiadiazol-3-yl)pyridin-2-yl]piperazin-1-yl}-2-azaspiro[3.4]octane-2-carboxylate]
13 | 95.2 | 7.63 | – | – | CCOC(=O)N1CCC2(CC(N3CCN(c4ncccc4OC)CC3)C2)C1 (stereo not shown) [Example 12, ethyl 2-[4-(3-methoxypyridin-2-yl)piperazin-1-yl]-6-azaspiro[3.4]octane-6-carboxylate]
14 | 83.1 | 8.27 | – | – | CCOC(=O)N1CC2(CCC(N3CCN(c4cccnc4OC4COC4)CC3)C2)C1 (stereo not shown) [Example 25, ethyl 6-{4-[2-(oxetan-3-yloxy)pyridin-3-yl]piperazin-1-yl}-2-azaspiro[3.4]octane-2-carboxylate]
15 | 89.4 | > 9.41 | – | – | CCOCCn1cc(-c2cccnc2N2CCN([C@@H]3CCC4(C3)CN(C(=O)OCC)C4)CC2)cn1 [Example 50, ethyl (6R)-6-(4-{3-[1-(2-ethoxyethyl)-1H-pyrazol-4-yl]pyridin-2-yl}piperazin-1-yl)-2-azaspiro[3.4]octane-2-carboxylate]
16 | 55.5 | 8.82 | – | – | CCOC(=O)N1CC2(CC[C@@H](N3CCN(c4nccnc4N4CCC(OC)CC4)CC3)C2)C1 [Example 43, ethyl (6R)-6-{4-[3-(4-methoxypiperidin-1-yl)pyrazin-2-yl]piperazin-1-yl}-2-azaspiro[3.4]octane-2-carboxylate]
17 | 66.4 | 9.09 | – | – | CCOC(=O)N1CC2(CC[C@@H](N3CCN(c4nccnc4-c4cncs4)CC3)C2)C1 [Example 11, ethyl (6R)-6-{4-[3-(1,3-thiazol-5-yl)pyrazin-2-yl]piperazin-1-yl}-2-azaspiro[3.4]octane-2-carboxylate]
18 | 63.5 | 8.56 | – | – | CCOC(=O)N1CC2(CC[C@@H](N3CCN(c4ncccc4-c4cnc(C)nc4)CC3)C2)C1 [Example 47, ethyl (6R)-6-{4-[3-(2-methylpyrimidin-5-yl)pyridin-2-yl]piperazin-1-yl}-2-azaspiro[3.4]octane-2-carboxylate]
19 | – | < 5.00 | – | – | CCOC(=O)N1CC2(CCC(N3CCN(c4ncccc4-c4cnc(OC)cn4)CC3)C2)C1 (single isomer, unassigned) [Example 2, ethyl 6-{4-[3-(5-methoxypyrazin-2-yl)pyridin-2-yl]piperazin-1-yl}-2-azaspiro[3.4]octane-2-carboxylate]
20 | 84.3 | 7.56 | – | – | CCOC(=O)N1CC2(CC(N3CCN(c4ncccc4-c4cc(C)ns4)CC3)C2)C1 [Example 32, ethyl 6-{4-[3-(3-methyl-1,2-thiazol-5-yl)pyridin-2-yl]piperazin-1-yl}-2-azaspiro[3.3]heptane-2-carboxylate]
21 | 96.8 | 8.40 | – | – | CCOC(=O)N1CC2(CCC(N3CCN(c4ncccc4C)CC3)C2)C1 (single isomer, unassigned) [Example 21, ethyl 6-[4-(3-methylpyridin-2-yl)piperazin-1-yl]-2-azaspiro[3.4]octane-2-carboxylate]
22 | 68.6 | 8.70 | – | – | CCOC(=O)N1CC2(CC[C@@H](N3CCN(c4ncccc4-c4nnc(C)o4)CC3)C2)C1 [Example 51, ethyl (6R)-6-{4-[3-(5-methyl-1,3,4-oxadiazol-2-yl)pyridin-2-yl]piperazin-1-yl}-2-azaspiro[3.4]octane-2-carboxylate]
